O=C(O)c1ccccc1Nc1ccccc1
solubility (mole fraction)
Conditions	in acetone	in acetonitrile	in ethanol	in ethyl acetate	in isopropanol	in methanol	in n-butanol	in n-propanol	in toluene
283.15 K	0.019	0.00147	0.00703	0.012	0.00593	0.00331	0.00849	0.00734	0.00238
285.65 K	0.0202	0.00171	0.00768	0.0133	0.00692	0.00381	0.00972	0.00831	0.00275
288.15 K	0.0223	0.00197	0.00854	0.0156	0.00805	0.00439	0.0112	0.00975	0.00321
290.65 K	0.0252	0.00228	0.00958	0.0182	0.00933	0.00521	0.013	0.0114	0.00374
293.15 K	0.0279	0.00268	0.0112	0.0213	0.0107	0.0061	0.0147	0.0132	0.00439
295.65 K	0.0304	0.00311	0.013	0.0235	0.0124	0.00723	0.0167	0.0152	0.00502
298.15 K	0.0335	0.00373	0.0152	0.0267	0.0144	0.00825	0.0187	0.0172	0.00573
300.65 K	0.0361	0.00425	0.0171	0.0301	0.0164	0.00944	0.0209	0.0194	0.00648
303.15 K	0.0399	0.00491	0.0196	0.034	0.0184	0.0106	0.0233	0.0216	0.00742
305.65 K	0.0427	0.00556	0.0219	0.0373	0.0208	0.0119	0.0256	0.0239	0.00841
308.15 K	0.0465	0.00617	0.0249	0.0414	0.0232	0.0129	0.0283	0.0266	0.0096
310.65 K	0.0499	0.00695	0.0276	0.0458	0.0254	0.0145	0.0311	0.0292	0.0109
313.15 K	0.0537	0.0078	0.0311	0.0503	0.0281	0.0164	0.0338	0.0322	0.0124
315.65 K	0.0582	0.00892	0.0339	0.0555	0.0309	0.0186	0.0367	0.035	0.014
318.15 K	0.063	0.0102	0.0374	0.0604	0.034	0.0212	0.0396	0.0383	0.0155

— BigSolDB 2.1
